Assay results: the supplement of paper PMC10331698
± gives the standard deviation of the averaged measurements.

How the values were obtained:
Assay in all cases: level (log10 ratio to DMSO vehicle control); higher = higher biomarker level / cell amount than vehicle control
[1] = compound: FC(F)C(F)(F)COCC1CO1 [((2,2,3,3-Tetrafluoropropoxy)methyl)oxirane]; settings: in DMSO
Protocol: (§1)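 BioMAP Diversity Plus panel of 12 human primary cell co-culture systems (3C, 4H, LPS, SAg, BT, BF4T, BE3C, CASM3C, HDF3CGF, KF3CT, MyoF, Mphg). Compounds were added 1 h before stimulation and left for 24 h (MyoF 48 h; BT 72 h for soluble read-outs or 6 d for IgG). Biomarkers were read by ELISA, cytotoxicity by SRB, PBMC viability and proliferation by Alamar Blue. Each well value was divided by the mean of 8 DMSO control wells on the same plate and log10 transformed; duplicate blinded samples were tested at 4 concentrations.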

[2] = compound: O=S(=O)(O)C(F)(F)C(F)(F)C(F)(F)C(F)(F)C(F)(F)C(F)(F)F [Perfluorohexanesulfonic acid]; settings: in DMSO
Protocol: as §1

[3] = compound: C=C(C)C(=O)OCCC(F)(F)C(F)(F)C(F)(F)C(F)(F)C(F)(C(F)(F)F)C(F)(F)F [(Perfluoro-5-methylhexyl)ethyl 2-methylprop-2-enoate]; settings: in DMSO
Protocol: as §1

[4] = compound: C=CC(=O)OCC(F)(F)C(F)(F)C(F)(F)C(F)(F)C(F)(F)C(F)(F)C(F)(F)F [1H,1H-Perfluorooctyl acrylate]; settings: in DMSO
Protocol: as §1

[5] = compound: O=C(O)C(F)(F)C(F)(F)C(F)(F)C(F)(F)C(F)(F)C(F)(F)C(F)(F)C(F)F [9-H-Perfluorononanoic acid]; settings: in DMSO
Protocol: as §1

[6] = compound: OCCCC(F)(F)C(F)(F)C(F)(F)C(F)(F)C(F)(F)C(F)(F)C(F)(F)F [7:3 Fluorotelomer alcohol]; settings: 6700 nM; in DMSO
Protocol: as §1

[7] = compound: O=C(O)C(F)(F)C(F)(F)C(F)F [4H-Perfluorobutanoic acid]; settings: in DMSO
Protocol: as §1

Test System | level (log10) ([1]; 6700 nM) | level (log10) ([1]; 20000 nM) | level (log10) ([1]; 60000 nM) | level (log10) ([2]; 6700 nM) | level (log10) ([2]; 20000 nM) | level (log10) ([2]; 60000 nM) | level (log10) ([3]; 6700 nM) | level (log10) ([3]; 20000 nM) | level (log10) ([4]; 6700 nM) | level (log10) ([4]; 20000 nM) | level (log10) ([4]; 60000 nM) | level (log10) ([5]; 6700 nM) | level (log10) ([5]; 20000 nM) | level (log10) ([5]; 60000 nM) | level (log10) [6] | level (log10) ([7]; 6700 nM) | level (log10) ([7]; 20000 nM) | level (log10) ([7]; 60000 nM)
HDF3CGF:CXCL10/IP-10 | -0.0085 ± 0.032 | -0.033 ± 0.0057 | -0.0175 ± 0.023 | 0.0035 ± 0.0064 | 0.0015 ± 0.021 | -0.0135 ± 0.012 | -0.0005 ± 0.0078 | -0.003 | -0.001 ± 0.0057 | -0.0455 ± 0.022 | -0.047 | -0.0535 ± 0.016 | -0.023 ± 0.02 | -0.052 ± 0.017 | -0.047 ± 0.03 | -0.0145 ± 0.016 | 0.0025 ± 0.0021 | 0.0085 ± 0.012
CASM3C:PAI-I | -0.0035 ± 0.0021 | -0.001 ± 0.011 | 0.0065 ± 0.011 | 0.001 ± 0.013 | 0.002 ± 0.0028 | 0.006 | -0.004 ± 0.0014 | 0.002 ± 0.0014 | 0 ± 0.0014 | -0.0075 ± 0.011 | 0.004 ± 0.0057 | 0.0135 ± 0.021 | -0.004 ± 0.0042 | 0.0085 ± 0.022 | -0.005 ± 0.0014 | 0.009 ± 0.0071 | 0.006 ± 0.0071 | 0.0075 ± 0.0021
3C:CD54/ICAM-1 | -0.008 ± 0.034 | -0.017 ± 0.025 | -0.002 ± 0.0099 | -0.002 ± 0.014 | -0.008 ± 0.0042 | 0.005 ± 0.0099 | -0.009 ± 0.0014 | -0.01 ± 0.0071 | 0.002 ± 0.0014 | 0 ± 0.0099 | 0 ± 0.018 | -0.006 | -0.0055 ± 0.0092 | 0.008 ± 0.013 | 0.013 | -0.016 ± 0.0014 | -0.0105 ± 0.018 | 0.0025 ± 0.0092
CASM3C:Serum Amyloid A | -0.004 ± 0.011 | 0.0215 ± 0.0035 | -0.0235 ± 0.0092 | -0.0215 ± 0.057 | -0.0085 ± 0.015 | 0.007 ± 0.021 | -0.0325 ± 0.021 | 0.025 ± 0.0085 | 0.03 ± 0.014 | 0.032 ± 0.044 | 0.0485 ± 0.013 | -0.0295 ± 0.035 | -0.02 | 0.0435 ± 0.053 | -0.0135 ± 0.028 | -0.056 ± 0.038 | -0.083 ± 0.055 | -0.0715 ± 0.11
MyoF:CXCL8/IL-8 | -0.0175 ± 0.005 | -0.0145 ± 0.018 | 0.0095 ± 0.025 | 0.001 ± 0.061 | -0.0185 ± 0.063 | -0.018 ± 0.051 | -0.011 ± 0.011 | -0.0255 ± 0.0064 | 0.002 ± 0.0099 | 0.037 ± 0.062 | 0.0185 ± 0.036 | 0.021 ± 0.023 | 0.003 ± 0.013 | -0.001 ± 0.023 | 0.017 ± 0.052 | -0.0125 ± 0.059 | -0.0145 ± 0.0035 | 0.0465 ± 0.074
MyoF:alpha-SM Actin | -0.0185 ± 0.019 | 0.0015 ± 0.022 | -0.0075 ± 0.03 | 0.012 ± 0.0071 | 0.006 ± 0.021 | 0.008 ± 0.031 | -0.018 ± 0.037 | -0.0255 ± 0.04 | 0.016 ± 0.0085 | -0.0215 ± 0.032 | -0.0185 ± 0.039 | -0.0215 ± 0.019 | -0.0245 ± 0.013 | -0.049 ± 0.014 | 0.0125 ± 0.0092 | -0.0335 ± 0.047 | -0.0245 ± 0.049 | -0.026 ± 0.034
KF3CT:MMP-9 | 0.0085 ± 0.0064 | -0.005 ± 0.011 | 0.012 ± 0.011 | 0.0095 ± 0.0064 | 0.028 ± 0.0014 | 0.027 ± 0.0057 | -0.0045 ± 0.037 | -0.027 ± 0.041 | -0.0245 ± 0.00071 | -0.0225 ± 0.019 | -0.014 ± 0.014 | -0.05 ± 0.013 | 0.004 ± 0.0014 | 0.0475 ± 0.011 | -0.019 ± 0.018 | -0.024 ± 0.055 | -0.0395 ± 0.012 | -0.0775 ± 0.00071
KF3CT:CXCL8/IL-8 | -0.024 ± 0.02 | -0.0035 ± 0.0092 | -0.001 ± 0.0071 | 0.015 ± 0.02 | 0.03 ± 0.0057 | 0.038 ± 0.0057 | -0.013 ± 0.037 | 0.006 ± 0.03 | -0.0205 ± 0.021 | -0.0005 ± 0.019 | 0.0405 ± 0.0021 | 0.0035 ± 0.015 | 0.0085 ± 0.0078 | 0.008 ± 0.0071 | 0.0035 ± 0.043 | 0.0025 ± 0.0078 | 0.01 ± 0.0085 | 0.017 ± 0.0042
KF3CT:SRB | -0.0085 ± 0.0035 | -0.0055 ± 0.0092 | 0.012 ± 0.034 | -0.0015 ± 0.0021 | -0.0095 ± 0.005 | 0.0005 ± 0.023 | -0.006 ± 0.0014 | 0.003 ± 0.016 | -0.007 ± 0.0014 | -0.0055 ± 0.00071 | -0.002 ± 0.0071 | -0.0175 ± 0.005 | -0.019 ± 0.0014 | -0.032 ± 0.0042 | -0.002 ± 0.0071 | -0.005 ± 0.0071 | -0.0065 ± 0.0064 | -0.008 ± 0.0014
HDF3CGF:CXCL8/IL-8 | -0.0145 ± 0.016 | -0.004 ± 0.0014 | 0.005 ± 0.0085 | 0.0045 ± 0.013 | 0.0035 ± 0.015 | 0.0065 ± 0.016 | -0.004 ± 0.0042 | 0.0025 ± 0.005 | 0.0045 ± 0.0064 | 0.0045 ± 0.0064 | 0.0095 ± 0.0035 | -0.0055 ± 0.0021 | -0.0055 ± 0.0064 | 0.0015 ± 0.0035 | -0.005 ± 0.0042 | 0.001 ± 0.0014 | 0.0025 ± 0.0078 | 0.0095 ± 0.023
lMphg:CD62E/E-Selectin | -0.0155 ± 0.0064 | -0.0195 ± 0.029 | -0.035 ± 0.011 | 0.0145 ± 0.00071 | 0.019 ± 0.0099 | 0.0955 ± 0.035 | -0.0135 ± 0.011 | -0.01 ± 0.017 | -0.0075 ± 0.023 | 0.004 ± 0.017 | -0.004 ± 0.021 | -0.005 ± 0.037 | 0.0085 ± 0.035 | 0.0585 ± 0.021 | -0.005 ± 0.048 | -0.012 ± 0.0028 | 0.0025 ± 0.0092 | 0.0145 ± 0.0064
MyoF:Collagen III | -0.0045 ± 0.0035 | -0.0105 ± 0.005 | -0.005 | 0.0035 ± 0.005 | -0.013 ± 0.0028 | -0.0125 ± 0.033 | -0.0135 ± 0.052 | -0.0455 ± 0.04 | 0.0005 ± 0.013 | -0.007 ± 0.024 | -0.0055 ± 0.021 | -0.002 ± 0.0085 | -0.003 ± 0.0042 | -0.026 ± 0.018 | -0.0035 ± 0.012 | 0.022 ± 0.0099 | 0.0155 ± 0.0064 | 0.034 ± 0.014
CASM3C:CD87/uPAR | -0.029 ± 0.016 | -0.0415 ± 0.005 | -0.034 ± 0.014 | 0.007 ± 0.0014 | 0.001 ± 0.0057 | 0.0065 ± 0.012 | -0.0305 ± 0.013 | -0.035 | 0.0095 ± 0.028 | 0.0135 ± 0.021 | 0.0235 ± 0.019 | -0.001 ± 0.014 | 0.0045 ± 0.011 | 0.029 ± 0.0057 | -0.036 ± 0.057 | -0.016 ± 0.013 | 0 ± 0.02 | 0.0055 ± 0.022
HDF3CGF:M-CSF | 0.009 | -0.001 ± 0.033 | -0.001 ± 0.013 | 0.001 ± 0.0085 | -0.012 ± 0.0028 | 0.0015 ± 0.00071 | -0.0175 ± 0.0078 | -0.0175 ± 0.0035 | 0.0085 ± 0.015 | -0.006 ± 0.0057 | -0.053 ± 0.069 | -0.067 ± 0.0028 | -0.0835 ± 0.011 | -0.05 ± 0.027 | 0.0035 ± 0.044 | -0.0305 ± 0.035 | -0.013 ± 0.033 | -0.015 ± 0.041
MyoF:Collagen I | 0.01 ± 0.0014 | -0.005 ± 0.016 | 0.0155 ± 0.023 | -0.0035 ± 0.023 | 0.008 ± 0.025 | 0.019 ± 0.028 | -0.0325 ± 0.037 | -0.037 ± 0.02 | -0.0195 ± 0.018 | -0.03 | -0.0145 ± 0.011 | 0.0035 ± 0.0021 | 0.0025 ± 0.0035 | -0.0365 ± 0.0092 | -0.0125 ± 0.011 | -0.0215 ± 0.022 | -0.0115 ± 0.018 | -0.0115 ± 0.0092
lMphg:CCL3/MIP-1alpha | -0.027 ± 0.059 | -0.0385 ± 0.084 | -0.0025 ± 0.026 | -0.006 ± 0.04 | 0.0055 ± 0.037 | 0.045 ± 0.034 | -0.008 ± 0.034 | -0.0125 ± 0.044 | 0.0215 ± 0.028 | 0.04 ± 0.0071 | 0.057 ± 0.0099 | -0.005 | -0.0065 ± 0.0021 | 0.0195 ± 0.036 | -0.0155 ± 0.019 | -0.0075 ± 0.037 | 0.004 ± 0.016 | 0.0235 ± 0.011
